EC50 data for 14 compounds are collected here from patent publication US11578069B2, “Compounds for inhibition of α4 β7 integrin” (Gilead Sciences, Inc., priority 2019, dated 2023).

One assay concerns the target T1, α4β7 integrin (Homo sapiens, UniProt P13612+P26010).
T1 construct: monitoring the capture of α4β7 integrin expressing cells; endogenous in cells; host or cells: RPMI8866
T1 sequence (P13612 34-1032): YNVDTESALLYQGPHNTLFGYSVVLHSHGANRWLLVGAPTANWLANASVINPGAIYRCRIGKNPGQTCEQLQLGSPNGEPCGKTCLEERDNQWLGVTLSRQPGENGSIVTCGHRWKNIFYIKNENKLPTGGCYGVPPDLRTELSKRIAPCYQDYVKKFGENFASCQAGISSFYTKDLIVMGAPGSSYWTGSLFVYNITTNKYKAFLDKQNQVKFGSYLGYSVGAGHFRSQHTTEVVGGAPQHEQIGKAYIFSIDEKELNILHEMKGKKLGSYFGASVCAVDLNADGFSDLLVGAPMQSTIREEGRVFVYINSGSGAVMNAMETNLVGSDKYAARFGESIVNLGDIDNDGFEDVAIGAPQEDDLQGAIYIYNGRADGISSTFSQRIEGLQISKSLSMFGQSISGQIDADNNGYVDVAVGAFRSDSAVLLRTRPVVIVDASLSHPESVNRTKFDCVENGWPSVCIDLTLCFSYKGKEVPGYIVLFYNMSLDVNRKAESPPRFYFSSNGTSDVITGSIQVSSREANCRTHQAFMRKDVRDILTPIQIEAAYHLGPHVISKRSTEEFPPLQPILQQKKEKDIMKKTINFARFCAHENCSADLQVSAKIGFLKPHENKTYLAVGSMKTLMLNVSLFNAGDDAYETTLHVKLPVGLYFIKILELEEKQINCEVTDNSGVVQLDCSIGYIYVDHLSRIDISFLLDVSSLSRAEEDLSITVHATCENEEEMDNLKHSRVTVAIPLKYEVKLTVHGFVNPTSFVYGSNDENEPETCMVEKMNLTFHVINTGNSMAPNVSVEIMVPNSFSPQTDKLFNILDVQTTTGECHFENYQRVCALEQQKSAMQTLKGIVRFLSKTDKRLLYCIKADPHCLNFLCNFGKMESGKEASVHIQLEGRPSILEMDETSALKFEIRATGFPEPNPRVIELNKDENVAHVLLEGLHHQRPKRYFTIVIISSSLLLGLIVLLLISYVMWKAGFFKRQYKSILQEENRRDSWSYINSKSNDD
T1 sequence (P26010 20-798): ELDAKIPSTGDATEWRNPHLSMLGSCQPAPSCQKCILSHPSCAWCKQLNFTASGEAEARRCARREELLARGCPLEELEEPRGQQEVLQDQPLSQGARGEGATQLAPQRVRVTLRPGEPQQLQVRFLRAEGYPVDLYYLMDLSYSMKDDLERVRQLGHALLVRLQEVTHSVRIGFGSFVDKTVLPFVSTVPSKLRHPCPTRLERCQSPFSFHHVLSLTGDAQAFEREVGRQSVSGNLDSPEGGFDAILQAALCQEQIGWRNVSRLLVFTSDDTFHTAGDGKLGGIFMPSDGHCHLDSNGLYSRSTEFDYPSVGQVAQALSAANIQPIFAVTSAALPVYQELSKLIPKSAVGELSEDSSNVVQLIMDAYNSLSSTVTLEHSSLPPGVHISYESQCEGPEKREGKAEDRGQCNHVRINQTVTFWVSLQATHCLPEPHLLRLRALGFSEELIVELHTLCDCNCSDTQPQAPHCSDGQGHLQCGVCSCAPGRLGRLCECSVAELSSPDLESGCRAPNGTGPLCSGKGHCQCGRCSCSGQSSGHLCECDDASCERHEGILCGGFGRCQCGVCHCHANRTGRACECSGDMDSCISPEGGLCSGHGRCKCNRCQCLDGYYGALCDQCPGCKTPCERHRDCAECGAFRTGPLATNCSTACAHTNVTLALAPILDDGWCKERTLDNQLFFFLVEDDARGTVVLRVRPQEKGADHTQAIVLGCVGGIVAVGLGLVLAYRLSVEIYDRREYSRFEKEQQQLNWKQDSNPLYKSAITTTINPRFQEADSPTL
As to the kind of experiment: α4β7 Integrin Cell Capture Assay. The format is cell-based. The settings on record: capture of α4β7 integrin expressing RPM18866 cells on MadCAM-1 extracellular domain-coated plate. The gist of the method: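 RPM18866 cells were preincubated with compound for 1 h at 37 °C in DMEM with 0.5% FBS and 0.5 mM MnCl2. They were then allowed to adhere for 30 min at 37 °C to BSA-blocked plates coated with MAdCAM-1 extracellular domain (1.0 µg/mL). After glutaraldehyde/Hoechst fixation and washing, bound cells were counted by imaging, and EC50 was fitted from counts versus concentration.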

The target in a further assay is T2, α4β1 integrin (Homo sapiens, UniProt P05556+P13612).
T2 construct: monitoring the capture of α4β1 expressing cells; endogenous in cells; host or cells: Jurkat
T2 sequence (P05556 21-798, one chain of several): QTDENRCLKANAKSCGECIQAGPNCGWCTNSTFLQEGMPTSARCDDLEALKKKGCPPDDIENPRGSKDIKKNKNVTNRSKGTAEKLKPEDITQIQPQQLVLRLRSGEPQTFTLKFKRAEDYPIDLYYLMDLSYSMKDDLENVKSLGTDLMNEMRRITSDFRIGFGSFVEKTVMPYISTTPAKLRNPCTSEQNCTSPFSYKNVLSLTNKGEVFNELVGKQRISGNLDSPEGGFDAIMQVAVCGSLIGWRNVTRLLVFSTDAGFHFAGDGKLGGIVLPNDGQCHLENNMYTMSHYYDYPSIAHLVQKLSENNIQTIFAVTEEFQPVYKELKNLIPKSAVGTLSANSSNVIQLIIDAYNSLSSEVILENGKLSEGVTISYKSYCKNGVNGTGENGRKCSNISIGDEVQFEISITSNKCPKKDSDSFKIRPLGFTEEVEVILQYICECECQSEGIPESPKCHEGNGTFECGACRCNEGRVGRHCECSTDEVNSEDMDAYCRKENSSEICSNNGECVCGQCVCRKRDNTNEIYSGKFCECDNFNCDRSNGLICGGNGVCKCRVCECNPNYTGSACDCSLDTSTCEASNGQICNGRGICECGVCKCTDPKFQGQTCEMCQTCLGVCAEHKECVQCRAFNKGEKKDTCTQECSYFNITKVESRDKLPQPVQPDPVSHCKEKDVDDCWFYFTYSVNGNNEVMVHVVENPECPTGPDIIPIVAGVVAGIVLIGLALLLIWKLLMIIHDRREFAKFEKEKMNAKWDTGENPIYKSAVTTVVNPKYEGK
As to the kind of experiment: α4β1 Cell Capture Assay. The format is cell-based. The settings on record: capture of α4β1 expressing Jurkat cells on VCAM-1 extracellular domain-coated plate. In short, it runs like this:
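Jurkat cells in DMEM with 0.5% FBS and 0.5 mM MnCl2 preincubated 1 h at 37° C with compound, then allowed 30 min at 37° C to bind plates coated with recombinant VCAM-1 extracellular domain (0.5 μg/ml). After glutaraldehyde fixation and Hoechst staining, bound cells counted by imaging; EC50 from concentration–response.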

One may read the EC50 as the concentration that produces a half-maximal response. Read a low EC50 as higher potency in that assay. For `Cc1cc(N2CCOC[C@H]2CC(F)(F)F)cc(F)c1C(=O)N[C@@H](Cc1ccc(-n2c(=O)c3ccncc3n(C)c2=O)nc1)C(=O)O` [Example 86], the 50% effective concentration (EC50) on α4β7 integrin (Table 2) is 4.2 nM; on α4β1 integrin (Table 2), 46.1 nM.
The corresponding values for `CC[C@@H](Nc1cc(F)c(C(=O)N[C@@H](Cc2ccc(-n3c(=O)cc(C)n(C)c3=O)nc2)C(=O)O)c(F)c1)C(F)(F)F` [Example 43] are 15.9 nM and 661 nM.
Take `Cc1cc(N2CCOC[C@@H]2C(F)(F)F)cc(F)c1C(=O)N[C@@H](Cc1ccc(-n2c(=O)c3ccncc3n(C)c2=O)nc1)C(=O)O` [Example 15, (S)-2-(2-fluoro-6-methyl-4-((R)-3-(trifluoromethyl)morpholino)benzamido)-3-(6-(1-methyl-2,4-dioxo-1,4-dihydropyrido[3,4-d]pyrimidin-3(2H)-yl)pyridin-3-yl)propanoic acid]: the EC50 on α4β7 integrin (Table 1) worked out at 0.21 nM; on α4β1 integrin (Table 1) it was 10.6 nM.
With `COc1cc(C[C@H](NC(=O)c2c(F)cc(N3CCOC[C@@H]3C(F)(F)F)cc2F)C(=O)O)ccc1-n1c(=O)c2ccncc2n(C)c1=O` [Example 53], the EC50 on α4β7 integrin (Table 2) was determined as 0.2 nM; on α4β1 integrin (Table 2), 18.6 nM.
Consider `Cn1c(=O)n(-c2ccc(C[C@H](NC(=O)c3c(F)cc(N4CCOC[C@@H]4C(F)(F)F)cc3F)C(=O)O)cn2)c(=O)c2ccncc21` [Example 13, (S)-2-(2,6-difluoro-4-((R)-3-(trifluoromethyl)morpholino)benzamido)-3-(6-(1-methyl-2,4-dioxo-1,4-dihydropyrido[3,4-d]pyrimidin-3(2H)-yl)pyridin-3-yl)propanoic acid], for which the values for the half-maximal effective concentration (EC50) on α4β7 integrin (Table 1) and on α4β1 integrin (Table 1) were 0.8 nM and 38.9 nM, respectively.
As to `Cc1cc(C[C@H](NC(=O)c2c(C)cc(N3CCOC[C@@H]3C(F)(F)F)cc2F)C(=O)O)ccc1-c1nc(C)c(C)n(C)c1=O` [Example 42], the results for the EC50 on α4β7 integrin (Table 2) and on α4β1 integrin (Table 2) were 0.3 nM and 5.8 nM, respectively.
As to `Cc1cc(N2CCOC[C@@H]2C(F)(F)F)cc(F)c1C(=O)N[C@@H](Cc1ccc(-n2c(=O)c3c(n(C)c2=O)COC3)cc1)C(=O)O` [Example 66, (S)-2-(2-fluoro-6-methyl-4-((R)-3-(trifluoromethyl)morpholino)benzamido)-3-(4-(1-methyl-2,4-dioxo-1,2,5,7-tetrahydrofuro[3,4-d]pyrimidin-3(4H)-yl)phenyl)propanoic acid], the values for the EC50 on α4β7 integrin (Table 1) and at α4β1 integrin (Table 1) were 0.1 nM and 4.8 nM, respectively.
As for `Cc1cc(N2CCOC[C@@H]2C(F)(F)F)cc(F)c1C(=O)N[C@@H](Cc1ccc(-n2c(=O)c3ccncc3n(C)c2=O)c(OC(F)(F)F)c1)C(=O)O` (atropisomer, axis not shown) [Example 93], the results for the EC50 on α4β7 integrin (Table 2) and on α4β1 integrin (Table 2) were 0.4 nM and 25.8 nM, respectively.
Take `Cn1c2c(c(=O)n(-c3ccc(C[C@H](NC(=O)c4c(F)cc(N5CCOC[C@@H]5C(F)(F)F)cc4F)C(=O)O)cc3)c1=O)CCOC2` [Example 61, (S)-2-(2,6-difluoro-4-((R)-3-(trifluoromethyl)morpholino)benzamido)-3-(4-(1-methyl-2,4-dioxo-1,2,4,5,6,8-hexahydro-3H-pyrano[3,4-d]pyrimidin-3-yl)phenyl)propanoic acid]: the EC50 at α4β7 integrin (Table 1) was found to be 0.4 nM; on α4β1 integrin (Table 1), 11.5 nM.
Taken in the same sequence, the figures for `Cc1cc(N2CCOC[C@@H]2C(F)(F)F)cc(F)c1C(=O)N[C@@H](Cc1ccc(-n2c(=O)c3ccncc3n(C)c2=O)cc1)C(=O)O` [Example 25, (S)-2-(2-fluoro-6-methyl-4-((R)-3-(trifluoromethyl)morpholino)benzamido)-3-(4-(1-methyl-2,4-dioxo-1,4-dihydropyrido[3,4-d]pyrimidin-3(2H)-yl)phenyl)propanoic acid] were 0.1 nM and 3.4 nM.
The corresponding values for `COc1cc(C[C@H](NC(=O)c2c(C)cc(N3CCOC[C@@H]3C(F)(F)F)cc2F)C(=O)O)ccc1-n1c(=O)c2ccncc2n(C)c1=O` [Example 27, (S)-2-(2-fluoro-6-methyl-4-((R)-3-(trifluoromethyl)morpholino)benzamido)-3-(3-methoxy-4-(1-methyl-2,4-dioxo-1,4-dihydropyrido[3,4-d]pyrimidin-3(2H)-yl)phenyl)propanoic acid] are 0.1 nM and 8.6 nM.
In the case of `Cc1cc(N2CCOC[C@H]2CC(F)F)cc(F)c1C(=O)N[C@@H](Cc1ccc(-n2c(=O)c3ccncc3n(C)c2=O)nc1)C(=O)O` [Example 85], the EC50 at α4β7 integrin (Table 2) was determined as 3.9 nM; at α4β1 integrin (Table 2) it was 17.9 nM.
The corresponding values for `COc1cc(C)n(C)c(=O)c1-c1ccc(C[C@H](NC(=O)c2c(F)cc(N3CCOC[C@@H]3C(F)(F)F)cc2F)C(=O)O)cc1` [Example 30] are 0.5 nM and 10.1 nM.
For the compound `Cc1cc(N2CCOC[C@@H]2C(F)(F)F)cc(F)c1C(=O)N[C@@H](Cc1ccc(-c2nc(C)c(C)n(C)c2=O)c(Cl)c1)C(=O)O` [Example 7, (S)-3-(3-chloro-4-(4,5,6-trimethyl-3-oxo-3,4-dihydropyrazin-2-yl)phenyl)-2-(2-fluoro-6-methyl-4-((R)-3-(trifluoromethyl)morpholino)benzamido)propanoic acid], the results for the EC50 on α4β7 integrin (Table 1) and on α4β1 integrin (Table 1) were 0.5 nM and 15.3 nM, respectively.
